Measured values from PMC7822874, “Chemoprotective antimalarials identified through quantitative high-throughput screening of Plasmodium blood and liver stage parasites” (Scientific Reports, 2021).
Where two headings read alike, the source gives them in different places.

Experiments:
HepG2 = conditions: human, hepg2 cells, 48 h
[1] = tested on: Plasmodium falciparum Dd2 asexual blood stage parasites; test: microbe, parasite or virus in culture; set-up: species or system Plasmodium falciparum Dd2 in human erythrocytes; single determination (one 11-point concentration-response curve); conditions: Plasmodium falciparum, DD2, Erythrocyte, 72 h; read-out: AC50
in vitro [2] = conditions: human, hepg2 cells
in vitro [3] = conditions: human
[4] = tested on: P. berghei-ANKA-GFP-LucCON liver stage parasites in HepG2-A16-CD81EGFP cells; test: P. berghei liver stage Pb-Luc assay, Method 1 (UCSD, 1536-well); format: cell-based, Plasmodium berghei; conditions: Method 1; for Max Resp (signal direction of the dose response): Decrease = decreasing P. berghei viability with dose, Increase = increasing signal, Inactive = no dose response
[5] = HepG2-A16-CD81EGFP cells, uninfected
[6] = Plasmodium berghei, Hill fit, 50% of maximum activity response, read-out: AC50
[7] = Plasmodium berghei, log10 of molar AC50 from Hill fit, read-out: Log AC50 (converted)

## CCOc1ccc(Nc2nc(NCC3CCCO3)c3ccccc3n2)cc1 (stereo not drawn) [MLS000724397-01]
HepG2
  Log AC50 (M): -4.3643 M
[1]
  AC50: 1.88 µM
In vitro [2]
  CC50 at 48 h: 43.2 µM
In vitro [3]; [5]
  viability at 48 h, 1 µM: 104%
  viability at 48 h, 3 µM: 83%

## CCN1CC=C(c2c[nH]c3ccccc23)CC1 [MLS000093713-01]
HepG2
  Log AC50 (M): -4.6143 M
[1]
  AC50: 4.22 µM
In vitro [2]
  CC50 at 48 h: 24.3 µM
In vitro [3]
  viability at 66 h: 103%

## O=C(NC(c1ccc(Cl)cc1)c1cc(Cl)c2cccnc2c1O)c1cccnc1 (stereo not drawn) [MLS000573463-01]
HepG2
  Log AC50 (M): -4.3643 M
[1]
  AC50: 5.96 µM
In vitro [2]
  CC50 at 48 h: 43.2 µM
In vitro [3]; [5]
  viability at 48 h, 1 µM: 84%
  viability at 48 h, 3 µM: 68%

## c1ccc(-[n+]2nc(Nc3cccc4ccccc34)sc2-c2c3ccccc3cc3ccccc23)cc1 [MLS000949879-01]
HepG2
  Log AC50 (M): -4.3643 M
[1]
  AC50: 5.96 µM
In vitro [2]
  CC50 at 48 h: 43.2 µM
In vitro [3]; [5]
  viability at 66 h: 95.1%

## c1ccc2cc3c(NCCN4CCOCC4)ccnc3cc2c1 [MLS000702892-01]
HepG2
  Log AC50 (M): -4.3643 M
[1]
  AC50: 1.68 µM
In vitro [2]
  CC50 at 48 h: 43.2 µM
In vitro [3]; [5]
  viability at 48 h, 1 µM: 89%
  viability at 48 h, 3 µM: 92%

## CC(=O)Nc1ccc(NC2=Nc3ccccc3N3C2=Nc2c(c(C)nn2-c2ccccc2)C3c2ccccc2)cc1 (stereo not drawn) [MLS000555438-01]
HepG2
  Log AC50 (M): -4.3143 M
[1]
  AC50: 6.68 µM
In vitro [2]
  CC50 at 48 h: 48.5 µM
In vitro [3]; [5]
  viability at 66 h: 95.3%

## CCn1c(/C=C/c2cc(Br)ccc2O)nc2ccccc2c1=O [MLS001205008-01]
HepG2
  Log AC50 (M): -4.8643 M
[1]
  AC50: 4.22 µM
In vitro [2]
  CC50 at 48 h: 13.7 µM
In vitro [3]; [5]
  viability at 48 h, 1 µM: 104%
  viability at 48 h, 3 µM: 101%

## COc1cc2nc(Nc3ccc(C)c(C)c3)nc(N)c2cc1OC [NCGC00107261-01]
HepG2
  Log AC50 (M): -4.3643 M
[1]
  AC50: 0.75 µM
In vitro [2]
  CC50 at 48 h: 43.2 µM
In vitro [3]; [5]
  viability at 48 h, 1 µM: 107%
  viability at 48 h, 3 µM: 97%

## O=C(Nc1nc(-c2ccccn2)cs1)Nc1ccc(F)cc1F [MLS001175659-01]
HepG2
  Log AC50 (M): -4.7643 M
[1]
  AC50: 5.31 µM
In vitro [2]
  CC50 at 48 h: 17.2 µM
In vitro [3]; [5]
  viability at 48 h, 1 µM: 94%
  viability at 48 h, 3 µM: 79%

## Cc1cccc(Oc2nc(-c3ccccn3)nc3ccccc23)c1 [MLS000769548-01]
HepG2
  Log AC50 (M): -4.9143 M
[1]
  AC50: 7.5 µM
In vitro [2]
  CC50 at 48 h: 12.2 µM
In vitro [3]; [5]
  viability at 48 h: 106%
  viability at 48 h, 1 µM: 106%

## CN(C)CC(CCC(CN(C)C)C(O)(c1ccccc1)c1ccccc1)C(O)(c1ccccc1)c1ccccc1 (stereo not drawn) [MLS001173677-01]
HepG2
  Log AC50 (M): -4.4643 M
[1]
  AC50: 2.11 µM
In vitro [2]
  CC50 at 48 h: 34.3 µM
In vitro [3]; [5]
  viability at 48 h, 1 µM: 101%
  viability at 48 h, 3 µM: 98%

## CCOC(=O)c1sc(NC(=O)CNCc2ccccn2)c(C(=O)OCC)c1C [MLS001005083-01]
HepG2
  Log AC50 (M): -4.3643 M
In vitro [2]
  CC50 at 48 h: 43.2 µM
In vitro [3]; [5]
  viability at 48 h, 1 µM: 101%
  viability at 48 h, 3 µM: 96%

## COc1ccc(C2c3ccc4ccccc4c3Oc3ncn(CCCN(C)C)c(=N)c32)cc1 (stereo not drawn) [MLS001216280-01]
HepG2
  Log AC50 (M): -4.4643 M
[1]
  AC50: 2.99 µM
In vitro [2]
  CC50 at 48 h: 34.3 µM
In vitro [3]; [5]
  viability at 48 h, 1 µM: 109%
  viability at 48 h, 3 µM: 103%

## Cc1cnc(C(=O)Nc2cccc3cccnc23)cn1 [MLS000033120-01]
HepG2
  Log AC50 (M): -6.2143 M
[1]
  AC50: 2.66 µM
In vitro [2]
  CC50 at 48 h: 0.611 µM
In vitro [3]; [5]
  viability at 66 h: 105%

## COc1cc(OC)c(NC2=CC(=O)C(=O)c3ccccc32)cc1Cl [MLS001198657-01]
HepG2
  Log AC50 (M): -4.3643 M
[1]
  AC50: 2.99 µM
In vitro [2]
  CC50 at 48 h: 43.2 µM
In vitro [3]; [5]
  viability at 48 h, 1 µM: 93%
  viability at 48 h, 3 µM: 59%

## CCc1ccc([S+](=O)([O-])c2nnn3c2nc(Nc2ccc(F)cc2)c2cc(Cl)ccc23)cc1 [NCGC00112284-01]
HepG2
  Log AC50 (M): -4.4643 M
[1]
  AC50: 2.11 µM
In vitro [2]
  CC50 at 48 h: 34.3 µM
In vitro [3]; [5]
  viability at 66 h: 105%

## CN1CCN(c2ccc(Nc3ccnc4cc(Cl)ccc34)cc2)CC1 [MLS001203414-01]
HepG2
  Log AC50 (M): -4.6143 M
[1]
  AC50: 0.188 µM
In vitro [2]
  CC50 at 48 h: 24.3 µM
In vitro [3]; [5]
  viability at 48 h, 1 µM: 86%
  viability at 48 h, 3 µM: 90%

## Cc1nc2c(=O)n(C)c(=O)nc-2n(C)n1 [MLS000528498-01]
HepG2
  Log AC50 (M): -6.0643 M
[1]
  AC50: 0.422 µM
[4]
  Max Resp (signal direction of the dose response): Decrease
[4]; [6]
  AC50: 0.056 µM
[4]; [7]
  AC50: 0.0562 µM
In vitro [2]
  CC50 at 48 h: 0.862 µM

## CN1CCC(NCCC(c2ccc(F)cc2)c2ccc(Cl)cc2)CC1 (stereo not drawn) [MLS001215866-01]
HepG2
  Log AC50 (M): -4.4643 M
[1]
  AC50: 4.22 µM
In vitro [2]
  CC50 at 48 h: 34.3 µM
In vitro [3]; [5]
  viability at 66 h: 98.6%

## CC1(C)N=C(N)N=C(N)N1c1ccc(OCCCOc2ccccc2)c(Cl)c1 [MLS000738223-01]
HepG2
  Log AC50 (M): -5.1143 M
[1]
  AC50: 2.99 µM
In vitro [2]
  CC50 at 48 h: 7.69 µM
In vitro [3]; [5]
  viability at 48 h, 1 µM: 39%
  viability at 48 h, 3 µM: 32%

## CCCN(CCC)CCNC(=O)c1cc2c(-c3ccc(Cl)cc3)nn(C)c2s1 [NCGC00108997-01]
HepG2
  Log AC50 (M): -4.3643 M
[1]
  AC50: 0.596 µM
In vitro [2]
  CC50 at 48 h: 43.2 µM
In vitro [3]; [5]
  viability at 48 h, 1 µM: 102%
  viability at 48 h, 3 µM: 98%

## CCN(CC)CCn1c(=N)n(CC(=O)c2ccc(Br)s2)c2ccccc21 [MLS001045932-01]
HepG2
  Log AC50 (M): -4.5143 M
[1]
  AC50: 5.31 µM
In vitro [2]
  CC50 at 48 h: 30.6 µM
In vitro [3]; [5]
  viability at 48 h, 1 µM: 91%
  viability at 48 h, 3 µM: 91%

## N=c1ccn(Cc2ccc(Cl)cc2)cc1 [MLS000080110-01]
HepG2
  Log AC50 (M): -4.4643 M
[1]
  AC50: 8.41 µM
In vitro [2]
  CC50 at 48 h: 34.3 µM
In vitro [3]; [5]
  viability at 66 h: 101%

## C/C(=N\NC(=O)c1cccc(Br)c1)c1ccccn1 [MLS001232242-01]
HepG2
  Log AC50 (M): -5.8643 M
[1]
  AC50: 4.73 µM
[4]
  Max Resp (signal direction of the dose response): Decrease
[4]; Hill fit, 50% of maximum activity response, read-out: AC50
  AC50: 0.891 µM
[4]; log10 of molar AC50 from Hill fit
  Log AC50 (M): -6.050 M
[4]; [6]
  AC50: 0.794 µM
[4]; [7]
  AC50: 0.794 µM
In vitro [2]
  CC50 at 48 h: 1.37 µM

## CCNc1nc(NC(C)(C)C)nc(N2CCCC2)n1 [MLS000528993-01]
HepG2
  Log AC50 (M): -4.3643 M
[1]
  AC50: 2.37 µM
In vitro [2]
  CC50 at 48 h: 43.2 µM
In vitro [3]; [5]
  viability at 66 h: 99.9%

## CC(C)(C)CC(C)(C)c1ccc(O)c(Cc2ccc(Cl)cc2Cl)c1 [NCGC00095016-01]
HepG2
  Log AC50 (M): -4.6643 M
[1]
  AC50: 1.68 µM
In vitro [2]
  CC50 at 48 h: 21.7 µM

## COc1ccc(C2=CC(c3ccc(F)cc3)n3ncc(C(=O)Nc4ccc(C)cc4)c3N2)cc1 (stereo not drawn) [NCGC00127228-01]
HepG2
  Log AC50 (M): -4.5143 M
[1]
  AC50: 2.37 µM
In vitro [2]
  CC50 at 48 h: 30.6 µM

## Cc1cc(Nc2ccc(Cl)cc2)nc(NCc2ccccc2)n1 [MLS000591025-01]
HepG2
  Log AC50 (M): -4.3643 M
[1]
  AC50: 0.422 µM
In vitro [2]
  CC50 at 48 h: 43.2 µM

## CCN(CC)CCn1c(=N)n(CC(O)COc2ccccc2C)c2ccccc21 (stereo not drawn) [NCGC00101835-01]
HepG2
  Log AC50 (M): -4.5643 M
[1]
  AC50: 3.35 µM
In vitro [2]
  CC50 at 48 h: 27.3 µM

## CCOc1ccc(NS(=O)(=O)c2csc(C(N)=O)c2)cc1 [MLS001199948-01]
HepG2
  Log AC50 (M): -4.6143 M
[1]
  AC50: 7.5 µM
In vitro [2]
  CC50 at 48 h: 24.3 µM

## Cc1noc(C)c1Cc1ccc(C(=O)N2[C@H]3CC[C@@H]2c2cnc(-c4ccccc4)nc2C3)o1 [NCGC00458744-01]
HepG2
  Log AC50 (M): -4.5643 M
[1]
  AC50: 9.44 µM
In vitro [2]
  CC50 at 48 h: 27.3 µM

## CCCCNc1cc(C)nc(NCc2ccccc2)n1 [MLS000078573-01]
HepG2
  Log AC50 (M): -4.4643 M
[1]
  AC50: 9.44 µM
In vitro [2]
  CC50 at 48 h: 34.3 µM

## CCc1ccc(Nc2cc(=O)n(C3CCCCC3)c(=O)[nH]2)cc1 [MLS000094379-01]
HepG2
  Log AC50 (M): -4.3643 M
In vitro [2]
  CC50 at 48 h: 43.2 µM
In vitro [3]; [5]
  viability at 66 h: 104%
